From patent US9364537B2, “Transition metal porphyrin complexes and methods of treatment using same” (UNIVERSITY OF DAYTON, priority 2014, dated 2016)

How the values were obtained:
[1] = test system: Pseudomonas aeruginosa planktonic cells; experiment: killing of planktonic cells in the absence of light, viable plate counts; assay type: cell-based; conditions: 37° C.
Method: ZnPFPTMP was added to cell suspensions at the concentrations shown in FIG. 5 (0 to 100 μM) and incubated at 37° C. in the absence of light. […]

[2] = test system: Pseudomonas aeruginosa biofilm associated cells; experiment: effect on biofilms in the dark; assay type: cell-based
Staphylococcus aureus = experiment: killing of bacteria in the absence of light, plated to determine viability; assay type: cell-based
Description: Additionally, the ability of ZnPFPTMP to affect killing of bacteria in the absence of light was further tested against the Gram-positive pathogenic bacterium Staphylococcus aureus. This bacterium was chose to evidence the ability of the porphyrins of general formula (I) to treat/kill methicillin-resistant Staphylococcus aureus (MRSA) without exposing the scientists to MRSA directly. Moreover, it is believed that the mechanism used by the porphyrins of general formula (I) is unlikely to involve the methicillin resistance mechanism. S. aureus cells grown in LB medium were washed and re-suspended on 0.2% peptone and exposed to either 1.5 μM or 3.0 μM Zeke in sterile water. Cell suspensions were sampled every 30 minutes for 3 hours and plated to determine viability. […] At 1.5 μM Zeke's complete elimination of viable cells of S. aureus took only two hours.

calf thymus CT-DNA = experiment: DNA titration by absorption spectra; assay type: binding; conditions: pH 7.2 buffer, ionic strength 0.1 M
Method: A sample of ZnPFPTMP from Part C was tested by various methods and techniques to determine how this compound may be utilized. In one test ZnPFPTMP was titrated into a DNA sample to determine ZnPFPTMP's affinity for binding to DNA. This test was conducted by measuring the absorption spectra of pH 7.2 buffer solutions (ionic strength=0.1 M) of ZnPFPTMP in the presence of increasing amounts of calf thymus CT-DNA.

[3] = test system: circular plasmid DNA (pUC18); experiment: photocleavage of plasmid DNA in the presence of oxygen, gel electrophoresis; assay type: biochemical; conditions: 50:1 base pair to complex ratio
Method: To appreciate the significance of the increased absorption of ZnPFPTMP in the PDT window, comparative photocleavage studies of plasmid DNA under normal conditions (i.e., in the presence of oxygen) were conducted for ZnPFPTMP and its free-base porphyrin. […] In FIG. 3, gel electrophoresis of circular plasmid DNA (pUC18) in the absence (lane 1) and presence (lanes 2-10) of unmetallated porphyrin (A) and ZnPFPTMP (B) at a 50:1 base pair to complex ratio are shown. Samples were irradiated with a 300 W mercury arc lamp equipped with a long pass filter, cutting off wavelengths below 550 nm, and were taken at 2 minute intervals.
ZnPFPTMP is very reactive at such low energy wavelengths of light.

[4] = test system: circular plasmid DNA (pUC18); experiment: photocleavage of plasmid DNA in the absence of oxygen, gel electrophoresis; assay type: biochemical; conditions: 10:1 base pair to complex ratio, wavelengths above 420 nm
Method: Referring now to FIG. 4, photocleavage studies based on a 10 to 1 base pairs to ZnPFPTMP was irradiated with a 420 nm filter and samples were taken at 10 minute intervals. In FIG. 3, gel electrophoresis of circular plasmid DNA (pUC18) in the absence (lane 1) and presence (lanes 2-10) of ZnPFPTMP at a 10:1 base pair to complex ratio is shown. Samples were irradiated with a 300 W mercury arc lamp equipped with a long pass filter, cutting off wavelengths below 420 nm in the absence of oxygen, and were taken at 10 minute intervals. Accordingly, ZnPFPTMP can be effective under hypoxic conditions.

meso-5,10,15-tris(N-methyl-4-pyridyl)-20-(pentafluorophenyl)porphyrinatozinc(II), tris-p-toluene sulfonate [ZnPFPTMP]
killing at two hours ([1]; 2 hours): substantial killing
MLC (minimum lethal concentration) ([1]; 7 hours, no survivors): 25 µM
biofilm formation ([2]; added to cell suspensions incubated in the dark): Biofilms were prevented
log reduction in preformed biofilms ([2]; preformed biofilms exposed in the dark (data not shown)): 2.7 log
time to complete elimination of viable cells (Staphylococcus aureus; 1.5 μM): two
log reduction in viable cells (Staphylococcus aureus; 3.0 μM, after 30 min): 5.5 log
viable cells remaining (Staphylococcus aureus; 3.0 μM, after 60 min): no viable cells remained
binding constants to DNA (calf thymus CT-DNA): greater than 10^6
band intensity compared to free-base porphyrin ([3]; after 2 minutes versus free-base porphyrin after 20 minutes, above 550 nm): more intense bands
photonicking of plasmid DNA ([3]; after two minutes, wavelengths above 550 nm, oxygen present): effective compete photonicking
photonicking of DNA in the absence of oxygen [4]: effective at photonicking DNA
